Reference: patent US5808139A (Ligand Pharmaceuticals Incorporated, priority 1994, dated 1998)
“Also recorded” adds a separate entry of the source.

Key:
[1] = molecular target: T1, glucocorticoid receptor (Homo sapiens, UniProt P04150); assay: Cross-reactivity, glucocorticoid receptor activation (agonist and antagonist); assay type: cell-based
T1 sequence (P04150 1-777): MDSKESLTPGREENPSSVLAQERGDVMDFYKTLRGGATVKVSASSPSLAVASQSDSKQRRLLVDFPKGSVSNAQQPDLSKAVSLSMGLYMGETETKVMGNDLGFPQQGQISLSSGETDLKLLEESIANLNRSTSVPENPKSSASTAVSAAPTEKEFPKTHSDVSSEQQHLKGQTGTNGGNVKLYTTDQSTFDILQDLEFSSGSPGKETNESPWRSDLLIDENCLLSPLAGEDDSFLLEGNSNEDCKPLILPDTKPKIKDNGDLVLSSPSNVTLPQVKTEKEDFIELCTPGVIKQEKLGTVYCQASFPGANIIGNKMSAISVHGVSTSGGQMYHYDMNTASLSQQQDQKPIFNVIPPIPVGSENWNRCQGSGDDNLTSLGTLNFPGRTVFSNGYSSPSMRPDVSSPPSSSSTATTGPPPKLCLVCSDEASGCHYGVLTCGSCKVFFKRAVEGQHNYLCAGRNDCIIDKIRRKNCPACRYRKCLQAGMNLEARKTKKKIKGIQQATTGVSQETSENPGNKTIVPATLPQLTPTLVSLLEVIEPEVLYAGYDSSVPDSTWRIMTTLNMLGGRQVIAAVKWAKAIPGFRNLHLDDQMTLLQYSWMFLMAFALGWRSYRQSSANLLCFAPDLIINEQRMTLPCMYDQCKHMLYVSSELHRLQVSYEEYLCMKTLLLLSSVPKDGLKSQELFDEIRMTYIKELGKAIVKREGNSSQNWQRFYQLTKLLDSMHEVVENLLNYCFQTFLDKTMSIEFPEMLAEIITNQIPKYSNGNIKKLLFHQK
Text: This assay is described in further detail in U.S. Pat. Nos. 4,981,784 and 5,071,773, which are incorporated herein by reference. The co-transfection assay provides a method for identifying functional ligands (either agonists which mimic, or antagonists which inhibit, the effect of hormones) for ligand-responsive receptor proteins.
The co-transfection assay provides a mechanism to evaluate ability of a compound to function as an agonist or antagonist of the activity modulated by an intracellular receptor. The co-transfection assay mimics an in vivo system in the laboratory. In the co-transfection assay, a cloned gene for an intracellular receptor is introduced by transfection (a procedure to induce cells to take up foreign genes) into a background cell substantially devoid of endogenous intracellular receptors. This introduced gene directs the recipient cells to make the intracellular receptor protein. A second gene is also introduced (co-transfected) into the same cells in conjunction with the intracellular receptor gene. This second gene functions as a reporter for the transcription-modulating activity of the target intracellular receptor. The reporter acts as a surrogate for the products normally expressed by a gene under control of the target receptor and its natural hormone.
A preferred reporter gene is one which expresses the firefly enzyme luciferase. The co-transfection assay can detect small molecule agonists or antagonists of target intracellular receptors. Exposing the cells to an agonist ligand increases reporter activity in the transfected cells that can be conveniently measured, reflecting ligand-dependent, intracellular receptor-mediated increases in reporter transcription. To detect antagonists, the co-transfection assay is carried out in the presence of a constant concentration of an agonist known to induce a defined reporter signal. […]
Co-transfected cells are exposed to a medium to which is added the potential ligand that is being evaluated. […] Antagonist activity is evaluated by adding the candidate ligand and a known agonist to the co-transfected cells. […]

[2] = system: T47D cells; assay: Alkaline phosphatase activity in T47D cells (induction and its inhibition); assay type: cell-based, human; conditions: for Agonist activity, alkaline phosphatase induction: ligand alone, three days
Text: The functional activities of the cyclocymopol analogues in the human breast cell line, T47D, were also investigated. T47D cells have proven to be a particularly useful model to investigate the molecular actions of sex steroids because they contain endogenous functional receptors for, and respond to, progestins, and their respective antagonists. Moreover, these cells contain exceptionally high titers of progesterone receptors and are exquisitely sensitive to the actions of progestins in a manner quite similar to their actions in normal and neoplastic mammary epithelial cells. In T47D cells, progestins induce de novo synthesis of a plasma-associated alkaline phosphatase, which has been reported to be similar, if not identical, to the alkaline phosphatase present in the normal breast and human milk. These tests were conducted according to the following illustrative example. […] For routine induction of alkaline phosphatase, cells were treated for three days with two media changes and harvested as described below. […] Nuclei were sedimented at 2500 rpm, and the supernatant was saved as cytosol. The protein content of the cytosol was assayed by the method of Bradford. Alkaline phosphatase activity was determined by incubating one volume of cell extract with three volumes of 1 mg/ml p-nitrophenol phosphate prepared in DEAM (1M diethanolamine, pH=9, containing 2 mM magnesium chloride) at room temperature for 20 min. At the end of the incubation time, the reaction was stopped with an equal volume of 1N NaOH. Ten standards of p-nitrophenol were prepared in DEAM buffer and absorbance was read at 405 nm. Alkaline phosphatase activity is expressed as pmol p-nitrophenol formed/min/mg protein.

| Agonist/antagonist activity with glucocorticoid receptor [1] | SMILES | Inhibition of alkaline phosphatase induced by SO-54 and SO-51 ([2]; induction by SO-54 or SO-51, FIG. 11) | Agonist activity, alkaline phosphatase induction [2] | Inhibition of progesterone-stimulated alkaline phosphatase activity ([2]; 1.0 nM progesterone) | Inhibition of R5020-induced alkaline phosphatase activity ([2]; R5020-induced) |
| --- | --- | --- | --- | --- | --- |
| significant activity | CC#C[C@]1(O)CC[C@H]2[C@@H]3CCC4=CC(=O)CCC4=C3[C@@H](c3ccc(N(C)C)cc3)C[C@@]21C [RU-486, reference compound] | blocked |  |  |  |
| slight agonist activity | C=C1CC[C@@H](Br)C(C)(C)[C@@H]1Cc1cc(OC)c(Br)cc1OC(C)=O [SO-52] |  | very weak agonists |  |  |
| neither agonist nor antagonist activity | C=C1CC[C@@H](Br)C(C)(C)[C@@H]1Cc1cc(OC)c(Br)cc1O [SO-53, (3R)-cyclocymopol monomethyl ether] |  | very weak agonists | attenuated this induction in a concentration-dependent manner; also recorded: attenuated the effects of progesterone in a concentration-dependant manner | effective antagonist of the progesterone mimic |
